No end group written: not given here.

One data set relates to C57BL6/J mice. Put plainly: Hot plate test of sensitivity to pain. The data set is classed as in vivo, mouse. The conditions noted are these: IV 100 μl at 10^−6 M, 30 minutes after injection. On the procedure: Sensitivity to pain was measured with two tests: the hot plate test and the “tail flick” test.
This test consists of measuring the time that a mouse licks its hind paws when it is put on a plate maintained at a given temperature. Two temperatures were used: 50 and 56° C.
The mice used were C57BL6/J mice. Each group was constituted of 10 mice.
The sensitivity to heat was then measured on the three groups of mice and the results obtained were compared.
The measurements were taken 30 minutes after injection.
The statistical difference was measured using the one-factor ANOVA test followed by the post-hoc test.
(In hot-plate and tail-flick tests a longer latency is read as antinociception.)

For data set [1], the system named is mouse (C57Black/J). As to the kind of experiment: Conditioned motility suppression test (CMST). It counts as in vivo. As to conditions: propeptide IV 100 μl at 1 μM per animal; 30 min after injection. An excerpt: (§1) The inventors conducted three types of behavioral experiments that are regarded as classical for determining the antidepressant activity of a substance (Nestler E. J., Gould E., Manji H., Buncan M., Duman R. S., Greshenfeld H. K., Hen, R. et al. “Preclinical models: status of basic research in depression” Biol Psychiatry. 15, 503-528 (2002) (20) and Cryan, J. & Holmes, A. “The ascent of mouse: advances in modeling human depression and anxiety” Nat Rev Drug Discov. 4, 775-790 (2005) (21)). The effects of the propeptide of the present invention were compared with those of the saline solution in which it is dissolved and with those of fluoxetine, one of the most-used antidepressants in clinical practice. The mouse strain used is C57Black/J strain. TREK-1^−/− mice were also measured in these various tests.
(§2) In the next two tests, the propeptide of the present invention was administered by the IV route at a rate of 100 μl at 1 μM per animal.
C. Conditioned Motility Suppression Test (CMST) (see Daugé, V., Sebret, A., Beslot, F., Matsui, T., & Rogues B. “Behavioral profile of CCK2 receptor-deficient mice” Neuropsychopharmacol; 25: 690-698 (2001) (23).
The experiment consists of conditioning the mouse on day 1, and measuring the effects of the substances on day 2.
On day 1, each mouse is placed in a box where the floor is a metal grille connected to an electric stimulator. […]

Data set [2] relates to hippocampus progenitor cells. As to the kind of experiment: Neurogenesis (BrdU-positive cells) after 4 days of treatment. The data set is classed as in vivo, mouse. As to conditions: PE 10^−5 M. An excerpt:
In contrast to many antidepressants now commonly used, the efficacy of action of the peptide of the invention is very rapid. […] 93: 3908-3913 (1996) (28) and with a considerable decrease in neurogenesis in the dentate gyrus (Gould, E., Tanapat, P., McEwen, B. S., Flugge, G., Fuchs, E. “Proliferation of granule cell precursors in the dentate gyrus of adult monkeys is diminished by stress” Proc Natl Acad Sci USA, 95: 3168-3171 (1998)) (29).
The experimental protocol is that described in the material and methods (Supplement) of the work of Santarelli et al., “Requirement of hippocampal neurogenesis for the behavioral effects of antidepressants” Science, 301: 805-809 (2003) (24) apart from the duration of treatment, which is four days.
The increase was evaluated using the one-factor ANOVA test followed by the post-hoc test.

Data set [3] has as its system mouse (C57Black/J). Put plainly: Tail suspension test (TST). It counts as in vivo. The conditions noted are these: IV 100 μl at 1 μM per animal; 30 min after injection.
Text: as §1, §2
B. Tail Suspension Test (TST)
(see Cryan, J. & Holmes, A. (2005) (21) and Ripoll, N., David, D., Dailly, E., Hascoet, M. & Bourin, M. “Antidepressant-like effects in various mice strains in the tail suspension” Behav Brain Res. 143(2:193-200 (2003) (22).)
The experiment, 30 min after injection of the test substance in the mouse, consists of suspending the mouse by the tail by means of an adhesive ribbon and measuring the immobility time for 6 min.

With “APLPRWSGPIGVSWGLR [propeptide, APLPRWSGPIGVSWGLR]”, the “reaction time on hot plate” value in the data set with C57BL6/J mice (50° C.) came out at 21.1 ± 1.5 s; with C57BL6/J mice (56° C.), 4.6 ± 0.9 s. In the data set with mouse (C57Black/J) [1], the “motility relative to untreated shocked mice” value is listed as 7 times greater. Further, the “neurogenesis relative to physiological saline” value in data set [2] is listed as “significant increase in neurogenesis”. The “effect on immobility time” value in the data set on mouse (C57Black/J) [3] is “comparable to those produced by fluoxetine”.

Values taken from patent US8252748B2, “Peptide derived from neurotensin receptor 3 and use thereof in the treatment of psychiatric diseases” (Centre National de la Recherche Scientifique—CNRS, priority 2007, dated 2012).
